Organism: Rattus norvegicus
Experiment: DrugMatrix - Regimen: Daily Repeat
Format: toxicity, organism-based, Sprague-Dawley
Set-up: regimen Daily Repeat, gender Male, age 6-8 weeks
Details: in vivo, po, route oral GAVAGE, […]; for ABSOLUTE BASOPHIL / ABSOLUTE EOSINOPHIL / ABSOLUTE LYMPHOCYTE / ABSOLUTE MONOCYTE / ABSOLUTE SEGMENTED NEUTROPHIL / BASOPHIL / EOSINOPHIL / ERYTHROCYTE COUNT / HEMATOCRIT / HEMOGLOBIN / LEUKOCYTE COUNT / LYMPHOCYTE / MEAN CORPUSCULAR HEMOGLOBIN / MEAN CORPUSCULAR HEMOGLOBIN CONCENTRATION / MEAN CORPUSCULAR VOLUME / MONOCYTE / NEUTROPHIL / NUCLEATED RED BLOOD CELLS / PLATELET COUNT: tissue Blood; for ALANINE AMINOTRANSFERASE / ALBUMIN / ALKALINE PHOSPHATASE / ASPARTATE AMINOTRANSFERASE / BLOOD UREA NITROGEN / CARBON DIOXIDE / CHLORIDE / CHOLESTEROL / CREATINE PHOSPHOKINASE / CREATININE / GLUCOSE / LACTATE DEHYDROGENASE / LIPASE / PHOSPHORUS / POTASSIUM / SODIUM / TOTAL BILIRUBIN / TOTAL PROTEIN / URIC ACID: tissue Plasma
[1] = 11 mg/kg, 120 h, dose level High, time 5 day
[2] = 72 h, dose 0.26 mg/Kg, dose level Low, time 3 day
[3] = 120 h, dose 0.26 mg/Kg, dose level Low, time 5 day

## C[C@H]1O[C@@H](O[C@H]2[C@@H](O)C[C@H](O[C@H]3[C@@H](O)C[C@H](O[C@H]4CC[C@@]5(C)[C@H](CC[C@@H]6[C@@H]5C[C@@H](O)[C@]5(C)[C@@H](C7=CC(=O)OC7)CC[C@]65O)C4)O[C@@H]3C)O[C@@H]2C)C[C@H](O)[C@@H]1O [DIGOXIN]
[1]
  ABSOLUTE BASOPHIL: 0 CELLS/uL
  ABSOLUTE EOSINOPHIL: 21.33 CELLS/uL
  ABSOLUTE LYMPHOCYTE: 5911 CELLS/uL
  ABSOLUTE MONOCYTE: 0 CELLS/uL
  ABSOLUTE SEGMENTED NEUTROPHIL: 367.67 CELLS/uL
  BASOPHIL: 0%
  EOSINOPHIL: 0.33%
  ERYTHROCYTE COUNT: 6.17 x10E6/uL
  HEMATOCRIT: 38.03%
  HEMOGLOBIN: 15.03 G/DL
  LEUKOCYTE COUNT: 6.3 x10E3/uL
  LYMPHOCYTE: 94.33%
  MEAN CORPUSCULAR HEMOGLOBIN: 24.37 pg
  MEAN CORPUSCULAR HEMOGLOBIN CONCENTRATION: 39.53 G/DL
  MEAN CORPUSCULAR VOLUME: 61.63 fL
  MONOCYTE: 0%
  NEUTROPHIL: 5.33%
  NUCLEATED RED BLOOD CELLS: 0 /100WBC
  PLATELET COUNT: 1098 x10E3/uL
  ALANINE AMINOTRANSFERASE: 90 u/L
  ALBUMIN: 4.37 G/DL
  ALKALINE PHOSPHATASE: 342 u/L
  ASPARTATE AMINOTRANSFERASE: 79.67 u/L
  BLOOD UREA NITROGEN: 9.33 mg/dL
  CARBON DIOXIDE: 32.67 mmol/L
  CHLORIDE: 95 MEQ/L
  CHOLESTEROL: 90.67 mg/dL
  CREATINE PHOSPHOKINASE: 208.33 u/L
  CREATININE: 0.11 mg/dL
  GLUCOSE: 175.67 mg/dL
  LACTATE DEHYDROGENASE: 92 u/L
  LIPASE: 9.33 u/L
  PHOSPHORUS: 9.27 mg/dL
  POTASSIUM: 4.94 MEQ/L
  SODIUM: 141.5 MEQ/L
  TOTAL BILIRUBIN: 0.17 mg/dL
  TOTAL PROTEIN: 6.23 G/DL
  URIC ACID: 0.5 mg/dL
[2]
  ABSOLUTE BASOPHIL: 0 CELLS/uL
  ABSOLUTE EOSINOPHIL: 80.67 CELLS/uL
  ABSOLUTE LYMPHOCYTE: 8480.33 CELLS/uL
  ABSOLUTE MONOCYTE: 0 CELLS/uL
  ABSOLUTE SEGMENTED NEUTROPHIL: 705.67 CELLS/uL
  BASOPHIL: 0%
  EOSINOPHIL: 0.67%
  ERYTHROCYTE COUNT: 5.56 x10E6/uL
  HEMATOCRIT: 34.27%
  HEMOGLOBIN: 13.27 G/DL
  LEUKOCYTE COUNT: 9.27 x10E3/uL
  LYMPHOCYTE: 91.67%
  MEAN CORPUSCULAR HEMOGLOBIN: 23.83 pg
  MEAN CORPUSCULAR HEMOGLOBIN CONCENTRATION: 38.73 G/DL
  MEAN CORPUSCULAR VOLUME: 61.63 fL
  MONOCYTE: 0%
  NEUTROPHIL: 7.67%
  NUCLEATED RED BLOOD CELLS: 0 /100WBC
  PLATELET COUNT: 1014 x10E3/uL
  ALANINE AMINOTRANSFERASE: 79.33 u/L
  ALBUMIN: 3.97 G/DL
  ALKALINE PHOSPHATASE: 406.67 u/L
  ASPARTATE AMINOTRANSFERASE: 82.67 u/L
  BLOOD UREA NITROGEN: 14.67 mg/dL
  CARBON DIOXIDE: 34 mmol/L
  CHLORIDE: 101.33 MEQ/L
  CHOLESTEROL: 79.33 mg/dL
  CREATINE PHOSPHOKINASE: 157.33 u/L
  CREATININE: 0.12 mg/dL
  GLUCOSE: 161 mg/dL
  LACTATE DEHYDROGENASE: 84 u/L
  LIPASE: 10 u/L
  PHOSPHORUS: 9.57 mg/dL
  POTASSIUM: 6.36 MEQ/L
  SODIUM: 146.27 MEQ/L
  TOTAL BILIRUBIN: 0.27 mg/dL
  TOTAL PROTEIN: 5.63 G/DL
  URIC ACID: 1.2 mg/dL
[3]
  ABSOLUTE BASOPHIL: 0 CELLS/uL
  ABSOLUTE EOSINOPHIL: 0 CELLS/uL
  ABSOLUTE LYMPHOCYTE: 13719.67 CELLS/uL
  ABSOLUTE MONOCYTE: 0 CELLS/uL
  ABSOLUTE SEGMENTED NEUTROPHIL: 1313.67 CELLS/uL
  BASOPHIL: 0%
  EOSINOPHIL: 0%
  ERYTHROCYTE COUNT: 5.8 x10E6/uL
  HEMATOCRIT: 35.03%
  HEMOGLOBIN: 13.67 G/DL
  LEUKOCYTE COUNT: 15.03 x10E3/uL
  LYMPHOCYTE: 90.33%
  MEAN CORPUSCULAR HEMOGLOBIN: 23.57 pg
  MEAN CORPUSCULAR HEMOGLOBIN CONCENTRATION: 39.03 G/DL
  MEAN CORPUSCULAR VOLUME: 60.4 fL
  MONOCYTE: 0%
  NEUTROPHIL: 9.67%
  NUCLEATED RED BLOOD CELLS: 0 /100WBC
  PLATELET COUNT: 1074 x10E3/uL
  ALANINE AMINOTRANSFERASE: 64.67 u/L
  ALBUMIN: 4.03 G/DL
  ALKALINE PHOSPHATASE: 401.33 u/L
  ASPARTATE AMINOTRANSFERASE: 82.67 u/L
  BLOOD UREA NITROGEN: 15.33 mg/dL
  CARBON DIOXIDE: 31.67 mmol/L
  CHLORIDE: 100.33 MEQ/L
  CHOLESTEROL: 58.67 mg/dL
  CREATINE PHOSPHOKINASE: 259 u/L
  CREATININE: 0.14 mg/dL
  GLUCOSE: 148.33 mg/dL
  LACTATE DEHYDROGENASE: 110 u/L
  LIPASE: 9.33 u/L
  PHOSPHORUS: 9.93 mg/dL
  POTASSIUM: 5.45 MEQ/L
  SODIUM: 144.47 MEQ/L
  TOTAL BILIRUBIN: 0.2 mg/dL
  TOTAL PROTEIN: 5.73 G/DL
  URIC ACID: 0.7 mg/dL
